Assay results from US20260317384A1, “SMALL MOLECULE HUMANIN MIMETICS” (The Regents of the University Of California, priority 2023, published 2026).
Peptide text beside a SMILES is read from it. * marks the point of attachment. Cbz = O=C(OCc1ccccc1)*

Key:
gp130 receptor = molecular target: T1, gp130 receptor (Homo sapiens, UniProt P40189); test: p-gp130 (p-Tyr) ELISA, HTS validation and dose response in U87-MG cells; type: cell-based; details: for p-gp130 (p-Tyr) dose response activity: dose response of validated hits, FIG. 4; for activation of gp130 receptor / increase of p-gp130: validation testing, truncated humanin peptides
T1 construct: express more than 10 times more endogenous gp130; endogenous in cells; host or cells: U87-MG
T1 sequence (P40189 23-918): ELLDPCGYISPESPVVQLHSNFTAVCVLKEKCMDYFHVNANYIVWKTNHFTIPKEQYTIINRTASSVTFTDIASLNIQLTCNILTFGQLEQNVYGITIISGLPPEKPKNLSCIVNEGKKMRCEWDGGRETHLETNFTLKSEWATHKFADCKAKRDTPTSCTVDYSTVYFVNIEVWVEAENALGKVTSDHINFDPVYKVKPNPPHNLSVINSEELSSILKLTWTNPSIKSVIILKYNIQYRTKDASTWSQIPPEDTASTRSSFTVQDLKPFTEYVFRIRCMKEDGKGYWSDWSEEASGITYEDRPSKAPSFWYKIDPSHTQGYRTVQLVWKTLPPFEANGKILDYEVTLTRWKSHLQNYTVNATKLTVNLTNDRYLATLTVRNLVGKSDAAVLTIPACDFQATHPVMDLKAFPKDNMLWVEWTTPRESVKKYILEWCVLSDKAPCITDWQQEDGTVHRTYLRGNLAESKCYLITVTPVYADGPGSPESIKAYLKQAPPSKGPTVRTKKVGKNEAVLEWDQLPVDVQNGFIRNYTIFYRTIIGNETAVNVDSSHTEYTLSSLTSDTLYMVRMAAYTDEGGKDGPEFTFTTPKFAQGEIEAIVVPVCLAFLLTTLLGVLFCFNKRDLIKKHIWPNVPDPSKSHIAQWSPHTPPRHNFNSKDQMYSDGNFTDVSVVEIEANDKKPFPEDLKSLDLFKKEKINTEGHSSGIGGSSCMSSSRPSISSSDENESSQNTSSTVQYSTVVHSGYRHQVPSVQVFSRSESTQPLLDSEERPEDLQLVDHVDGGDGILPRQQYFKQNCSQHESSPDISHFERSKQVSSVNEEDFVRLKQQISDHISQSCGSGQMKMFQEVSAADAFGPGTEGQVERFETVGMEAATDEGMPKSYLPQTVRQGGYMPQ
Excerpt: (§1) An ELISA assay for the evaluation of the p-gp130 levels was developed. This was a commercial ELISA—DuoSet ELISA from R&D systems (cat #DYC3407-2) and detected the tyrosine phosphorylation of gp130. […] In addition, a commercially available p-AKT (1,2,3) AlphaLISA kit was used (PE cat #ALSU-PAKT-B-HV) for the HTS assay.
(§2) Small molecules that act as HN mimetics represent a new class of AD therapeutics. Through screening, validated hits that increase both p-gp-130 and p-Akt levels were identified. Human glioblastoma cells were used, U87-MG. Several hits that enhance p-gp 130 were identified as well as several compounds that can increase p-AKT (FIG. 3).
(§3) Into a 96 well plate was added 99 μL of warm DMEM/F12 without FBS, then 1 uL of compounds at 1 mM were loaded into the96 well plate. These generated the compounds at 2×. Into a 96 well plate was added IL6/IL6R solution to achieve 6.6×10−4 mg/mL and 3.3×10−4 mg/mL respectively, this is 2× concentration. For this, primary EL6 stock (0.1 mg/mL) was diluted150-fold and IL6R stock (0.1 mg/mL) 300-fold to treat cells with final concentration of 6.6×10−4 mg/mL and 3.3×10−4 mg/mL respectively. 10 ml of Sample Diluent Concentrate 2 (2X)(Part #895891/DYC002)+10 ml ddH2O+200 ul of 100 mM activated Na3VO4 (aliquots at −20C)+20 ul of 10 mg/ml aprotinin (stock at 4C)+20 ul of 10 mg/ml leupeptin (aliquots at −20C)+200 ul PIC-protected from light. Lysis buffer containing 1% NP-40 Alternative, 20 mM Tris (pH 8.0), 137 mM NaCl, 10% glycerol, 2 mM EDTA, 1 mM activated sodium orthovanadate, 10 μg/mL Aprotinin, 10 μg/mL Leupeptin. Placed on ice. Removed the media from the cell plate and add 50 μL of DMEM/F12 without FBS. Then, added 50 μL of the compounds or positive control IL6/IL6R at 2× into the cell plate using the multichannel (FIG. 7). Allowed the treatment to take place for 10 minutes in the incubator at 37° C. and 5% CO2. Cells were lysed with 130 μL of ice-cold lysis buffer. Placed cells on ice for 15 min, then in the −80° C. overnight. Next, we prepared the ELISA plate by warming coating buffer to RT. 12 strips were coated with capture antibody. For this: 121 μL of 180 μg/mL of capture antibody (R&D DYC3407-2) was added into 21.48 mL of coating buffer. 100 μL of this solution was added to each well, covered with a lead and incubated at RT overnight and then conducted the ELISA assay using the manufacture outlined protocol. The cell lysate from the HTS was prepared using the AlphaLISA buffer to measure levels of p-AKT after compound treatment.

p-gp130 and p-Akt = test: HN mimetic activity (p-gp130 and p-Akt); type: cell-based, human
Excerpt: as §1, §2
as §3, with “For this: 121 μL of 180 μg/mL of capture antibody (R&D DYC3407-2) was added into 21.48 mL of coating buffer. 100 μL of this solution was added to each well, covered with a lead and incubated at RT overnight and then conducted the ELISA assay using the manufacture outlined protocol. The cell lysate from the HTS was prepared using the AlphaLISA buffer to measure levels of p-AKT after compound treatment.” left out

p-gp130 = p-gp130 AlphaLISA in U87-MG cells; type: cell-based, human; details: 30 μM for 3 hours, FIG. 2D
Description: FIG. 2. Development of p-gp 130 and gp130 AlphaLISA assays (A) Evaluation of p-gp 130 and gp 130 levels in U87-MG and SH-SY5Y cells after treatment with compound 2 by immunoblotting. (B) Principle of AlphaLISA assay. (C) Data of developed gp-130 AlphaLISA assay. Analyte is recombinant gp130 (EC domain).
Eight different antibodies (more than 20 combinations) were tested in a course of p-gp130 and gp130 AlphaLISA development. The principle of the AlphaLISA assay is depicted in FIG. 2B. […] Lysate buffer composition and treatment conditions have been optimized.

p-AKT = p-AKT AlphaLISA in U87-MG cells; type: cell-based, human; set-up: dose or concentration left out as unconfirmed; details: FIG. 2D
Excerpt: as §1, §2
Into a 96 well plate was added 99 μL of warm DMEM/F12 without FBS, then 1 uL of compounds at 1 mM were loaded into the96 well plate. These generated the compounds at 2×. Into a 96 well plate was added IL6/IL6R solution to achieve 6.6×10−4 mg/mL and 3.3×10−4 mg/mL respectively, this is 2× concentration. For this, primary EL6 stock (0.1 mg/mL) was diluted150-fold and IL6R stock (0.1 mg/mL) 300-fold to treat cells with final concentration of 6.6×10−4 mg/mL and 3.3×10−4 mg/mL respectively. 10 ml of Sample Diluent Concentrate 2 (2X)(Part #895891/DYC002)+10 ml ddH2O+200 ul of 100 mM activated Na3VO4 (aliquots at −20C)+20 ul of 10 mg/ml aprotinin (stock at 4C)+20 ul of 10 mg/ml leupeptin (aliquots at −20C)+200 ul PIC-protected from light. […]

Molecule | p-gp130 (p-Tyr) dose response activity (gp130 receptor) | HN mimetic activity (p-gp130 and p-Akt) | other results
CCC(=O)Nc1ccc2nc(C)n(-c3cccc(Cl)c3)c(=O)c2c1 [DDL-813] | most potent showing submicromolar activity | – | –
CC[C@H](C)[C@H](NC(=O)[C@H](CCC(=O)O)NC(=O)CNC(=O)[C@@H](N)[C@@H](C)O)C(=O)O [DDL-842, NH2-Thr-Gly-Glu-Ile-COOH] (H-TGEI-OH) | – | weak HN mimetic activity | –
C#CCSC[C@H](N)C(=O)O [S-propargyl-cyctein (SPRC), S-propargyl-cyctein] | – | – | p-gp130 AlphaLISA signal (p-gp130): significant increaste; p-AKT AlphaLISA signal (p-AKT): significant increaste
Cbz-Thr-Ser-NH2 [DDL-841] | – | increased HN mimetic activity | –
H-TGEINLPVK-OH [DDL-815, NH2-Thr-Gly-Glu-Ile-Asn-Leu-Pro-Val-Lys-COOH] | – | weaker HN mimetic activity through lower p-gp130 and p-Akt | –
H-TSEINLPVK-OH [DDL-814, NH2-Thr-Ser-Glu-Ile-Asn-Leu-Pro-Val-Lys-COOH] | good activity | – | activation of gp130 receptor / increase of p-gp130 (gp130 receptor): activate the gp130 receptor; activation of gp130 receptor / increase of p-gp130 (gp130 receptor; listed as P3): increased p-gp-130
